The results in this text go back to US9982265B2, “Inhibition of Bruton's tyrosine kinase (Btk) in the lung to treat severe lung inflammation and lung injury” (BOARD OF REGENTS, THE UNIVERSITY OF TEXAS SYSTEM, priority 2014, dated 2018).

One data set relates to Btk. The experiment in a line: Expression of Btk / pBtk in alveolar neutrophils of treated ALI mice, laser confocal microscopy. Type of data set: in vivo. Conditions: LPS/IC ALI; 2 h after administration of ICs; FIG. 4B. Here is the method: (§1) Laser Confocal Microscopy: Purified alveolar neutrophils mounted on cytospins were incubated with the following primary antibodies: anti-mouse Btk, anti-mouse MyD88, anti-mouse MMP-9 (Santa Cruz Biotechnology), and anti-mouse pBtk (Invitrogen, Grand Island, N.Y.). Species specific antibodies conjugated with fluorescent dyes were subsequently applied to slides. Lung tissue sections, processed as routinely done in our laboratory (26, 28), were incubated with anti-mouse FcγRIII antibody (R&D Systems, Minneapolis, Minn.), or anti-mouse MMP-9 antibody (Santa Cruz Biotechnology), or with anti-neutrophil (Ly6G1A8) antibody (Bio X Cell, West Lebanon, N.H.) followed by fluorescence dye-conjugated secondary antibodies. Hoechst 33342 (Calbiochem, San Diego, Calif.) was employed to stain nuclei. Laser confocal microscopy was performed using PerkinElmer Ultra VIEW LCI confocal imaging system with Nikon TE2000-S fluorescence microscope and PlanApox60 immersion oil objective (numerical aperture [NA] 1.4) at room temperature. Ultra VIEW Imaging Suite software (version 5.5.0.4) was used for image processing.
Laser confocal microscopy was employed to confirm the effectiveness of Btk blocking in alveolar neutrophils. […] The effectiveness of Btk silencing in alveolar neutrophils was 92%. […] These experiments were performed at 2 h after administration of ICs.

The test system of another data set is MMP-9. Nature of the data set: Expression of MMP-9 in alveolar neutrophils of treated ALI mice, laser confocal microscopy. Conditions: LPS/IC ALI; FIGS. 6A and B. Type of data set: in vivo. Here is the method: as §1
Neutrophils are implicated in ALI because of various substances released from granules into the area of inflammation. MMP-9 (gelatinase B) is one of the most extensively studied MMPs in the context of ALI. […]

The test system of the next data set is thrombomodulin (TM). The experiment in a line: Thrombomodulin in BAL fluid by Western blot, LPS/IC induced ALI. Type of data set: in vivo, mice. Conditions: FIG. 6D. Here is the method:
Western Blotting: BAL fluids were subjected to SDS PAGE electrophoresis, transferred onto PVDF membrane and further evaluated for the presence of thrombomodulin using anti-mouse TM antibody (M-17; Santa Cruz Biotechnology, Santa Cruz, Calif.). In some experiments cell culture media or cell lysates were analyzed for level of MPO or actin (EMD Millipore, Billerica, Mass. and Santa Cruz Biotechnology, respectively) or phospho-p40 phox (Santa Cruz Biotechnology).
Endothelial damage in this ALI model was also examined by assessing the release of thrombomodulin (TM), which is a membrane protein expressed on the capillary endothelium (40, 52). A Western Blot analysis of BAL fluid samples was performed (FIG. 6D) from control mice (Saline), mice with LPS/IC induced ALI, and mice treated with siRNA specific for Btk, or MMP-9, or control siRNA. The bar graph in FIG. 6D includes data from 3 experiments. For each repetition a fold over a corresponding control was calculated. Means of all repetitions as well as associated standard deviations were graphed. […] The same was true for mice that received nonspecific control siRNA (p<0.05).
A general note: Immunoblotting shows a protein as a band on a membrane.

Take “Cont siRNA: control siRNA #8 (SEQ ID NO:26/27) conjugated to F(ab′)2 fragments of Ly6G1A8 (chain 1 UUCCUCUCCACGCGCAGUACAUUUA; chain 2 AAGGAGAGGUGCGCGUCAUGUAAAU; conjugated to antibody F(ab')2 fragment, attachment not given here; one strand is listed 3' to 5')”: in the data set with Btk, the “Btk in lung neutrophils” value is given as “normal levels”. Moreover, in the data set on MMP-9, the “MMP-9 expression in lung neutrophils” value is “detectable”. Besides, the “levels of thrombomodulin (TM) in BAL fluid” value with thrombomodulin (TM) is given as “significantly increased levels”.
